Values after ≈ are worked out from the molar mass of the structure shown. Each block holds one compound with its values, some of them ahead of it.
Assays:
Test in all cases: ≥ marks a high value that may be exact or a test limit, other limits are often not marked, values filed in µg/mL are converted to µM
[1] = system: Salmonella enterica serovar typhimurium MS7953s
[2] = system: Pseudomonas aeruginosa K799
[3] = system: Pseudomonas aeruginosa Z61
[4] = system: Staphylococcus epidermidis C621
Vibrio anguillarum = system: Vibrio anguillarum
[5] = system: Salmonella enterica subsp. enterica serovar Typhimurium ATCC 14028s
Aeromonas salmonicida = system: Aeromonas salmonicida
[6] = system: Staphylococcus aureus ATCC 25923
[7] = system: Staphylococcus aureus ATCC BAA-1683
Escherichia coli = system: Escherichia coli
[8] = system: Pseudomonas aeruginosa PAO1
Candida parapsilosis = system: Candida parapsilosis
[9] = system: Escherichia coli DH5alpha
[10] = system: Zymomonas mobilis ATCC 10988
Bacillus subtilis DELTA = system: Bacillus subtilis DELTA
Candida albicans DBFIQ 1 = system: Candida albicans DBFIQ 1
[11] = system: Escherichia coli ATCC 35218
[12] = system: Enterococcus faecalis ATCC 29212
[13] = system: Staphylococcus aureus BSF FBCB1313
[14] = system: Candida tropicalis DBFIQ 3
Candida albicans PEEC 2 = system: Candida albicans PEEC 2
[15] = system: Pseudomonas aeruginosa ATCC 27853
Staphylococcus aureus = system: Staphylococcus aureus
Pseudomonas fluorescens = system: Pseudomonas fluorescens
Ralstonia pickettii = system: Ralstonia pickettii
Candida albicans = system: Candida albicans
[16] = system: Pseudomonas aeruginosa M1426
Escherichia coli UB1005 = system: Escherichia coli UB1005
[17] = system: Pseudomonas aeruginosa M76
[18] = system: Salmonella enterica serovar Typhimurium
[19] = system: Pseudomonas aeruginosa R70
[20] = system: Pseudomonas aeruginosa M1251
[21] = system: Stenotrophomonas maltophilia
[22] = system: Achromobacter xylosoxidans
[23] = system: Pseudomonas aeruginosa M917
[24] = system: Staphylococcus aureus ATCC 29231
[25] = system: Enterococcus faecium E007
[26] = system: Candida albicans ATCC 10231
[27] = system: Acinetobacter baumannii ATCC 7978
[28] = system: Cryptococcus neoformans ATCC 32264
[29] = system: Escherichia coli ATCC 25922
[30] = system: Salmonella enterica subsp. enterica serovar Enteritidis
Salmonella sp. = system: Salmonella sp.
[31] = system: Staphylococcus aureus ATCC 43300
[32] = system: Staphylococcus aureus ATCC 29213
Yersinia enterocolitica = system: Yersinia enterocolitica

MIC [6]: 86.6 µM (≈ 125 µg/mL)
MIC [7]: ≥ 86.6 µM
MIC (Escherichia coli): 347 µM (≈ 500 µg/mL)
SMILES: CC(C)C[C@H](NC(=O)[C@H](CC(C)C)NC(=O)[C@H](CCCN=C(N)N)NC(=O)[C@H](CCCCN)NC(=O)[C@H](CCCCN)NC(=O)[C@@H](N)CCC(=O)O)C(=O)N[C@@H](CCCCN)C(=O)N[C@@H](Cc1c[nH]c2ccccc12)C(=O)N[C@@H](Cc1c[nH]c2ccccc12)C(=O)N[C@@H](CCCN=C(N)N)C(N)=O [EKKRLLKWWR]

MIC [8]: 11.5 µM (≈ 20.5 µg/mL)
MIC (Candida parapsilosis): 23.1 µM (≈ 40.9 µg/mL)
MIC [9]: ≥ 57.7 µM
MIC [10]: 28.8 µM (≈ 51.2 µg/mL)
MIC (Bacillus subtilis DELTA): ≥ 57.7 µM
SMILES: CC[C@H](C)[C@H](NC(=O)[C@H](CCCN=C(N)N)NC(=O)[C@H](CCC(N)=O)NC(=O)[C@H](CC(C)C)NC(=O)[C@@H](NC(=O)[C@H](CCCN=C(N)N)NC(=O)[C@H](CCCCN)NC(=O)[C@H](Cc1ccccc1)NC(C)=O)[C@@H](C)CC)C(=O)N[C@@H](CCCCN)C(=O)N[C@@H](CC(=O)O)C(=O)N[C@@H](Cc1ccccc1)C(=O)N[C@@H](CC(C)C)C(=O)N[C@@H](CCCN=C(N)N)C(N)=O [FKRILQRIKDFLR]

MIC [24]: 3.35 µM (≈ 7.99 µg/mL)
MIC [25]: ≥ 53.7 µM
MIC [26]: 26.8 µM (≈ 64 µg/mL)
MIC [27]: ≥ 53.7 µM
SMILES: CC[C@H](C)[C@H](NC(=O)[C@H](CCCCN)NC(=O)[C@H](Cc1c[nH]c2ccccc12)NC(=O)[C@H](Cc1c[nH]c2ccccc12)NC(=O)[C@@H](NC(=O)[C@H](CCCCN)NC(=O)[C@H](Cc1c[nH]c2ccccc12)NC(=O)[C@@H](N)CC(C)C)[C@@H](C)CC)C(=O)N[C@@H](Cc1c[nH]c2ccccc12)C(=O)N[C@@H](CCCN=C(N)N)C(=O)N[C@H](C(=O)N[C@@H](Cc1c[nH]c2ccccc12)C(=O)N[C@@H](CCCCN)C(=O)N[C@@H](CC(N)=O)C(=O)N[C@@H](Cc1c[nH]c2ccccc12)C(=O)N[C@@H](CCCN=C(N)N)C(=O)O)C(C)C [LWKIWWKIWRVWKNWR]

MIC [28]: 25 µM (≈ 43.2 µg/mL)
MIC [26]: 50 µM (≈ 86.3 µg/mL)
SMILES: CC[C@H](C)[C@H](NC(=O)[C@H](CCC(N)=O)NC(=O)[C@@H](N)CCCN=C(N)N)C(=O)N[C@@H](CCCN=C(N)N)C(=O)N[C@@H](CCCN=C(N)N)C(=O)N[C@@H](Cc1c[nH]c2ccccc12)C(=O)N[C@@H](Cc1c[nH]c2ccccc12)C(=O)N[C@@H](CCC(N)=O)C(=O)N[C@@H](Cc1c[nH]c2ccccc12)C(=O)N[C@@H](CCCN=C(N)N)C(=O)N[C@@H](CCCN=C(N)N)C(N)=O [RQIRRWWQWRR]

Second part, the compound before the results:

SMILES: CSCC[C@H](NC(=O)[C@@H](NC(=O)[C@H](CCCCN)NC(=O)[C@H](Cc1c[nH]c2ccccc12)NC(=O)[C@H](CC(C)C)NC(=O)[C@H](C)N)[C@@H](C)O)C(=O)N[C@@H](CC(C)C)C(=O)N[C@@H](CCCCN)C(=O)N[C@@H](CCCCN)C(=O)N[C@@H](C)C(=O)N[C@@H](C)C(=O)N[C@@H](Cc1cnc[nH]1)C(=O)N[C@H](C(=O)NCC(=O)N[C@@H](CCCCN)C(=O)N[C@@H](Cc1cnc[nH]1)C(=O)N[C@H](C(=O)NCC(=O)N[C@@H](CCCCN)C(=O)N[C@@H](C)C(=O)N[C@@H](C)C(=O)N[C@@H](CC(C)C)C(=O)N[C@H](C(=O)N[C@@H](Cc1cnc[nH]1)C(=O)N[C@@H](Cc1ccc(O)cc1)C(=O)N[C@@H](CC(C)C)C(=O)N[C@@H](CC(N)=O)C(=O)O)[C@@H](C)O)C(C)C)C(C)C [ALWKTMLKKAAHVGKHVGKAALTHYLN]
MIC [1]: 0.167 µM (≈ 0.5 µg/mL)
MIC [2]: 1.34 µM (≈ 4 µg/mL)
MIC [3]: 2.68 µM (≈ 8 µg/mL)
MIC [4]: 1.34 µM (≈ 4 µg/mL)
MIC (Vibrio anguillarum): 1.34 µM (≈ 4 µg/mL)
MIC [5]: 1.34 µM (≈ 4 µg/mL)
MIC (Aeromonas salmonicida): 0.335 µM (≈ 1 µg/mL)

SMILES: CC(C)C[C@H](NC(=O)[C@H](CCCCN)NC(=O)[C@H](CCCCN)NC(=O)[C@H](Cc1ccccc1)NC(=O)[C@H](CC(C)C)NC(=O)[C@@H](N)CCCCN)C(=O)N[C@@H](Cc1ccccc1)C(=O)N[C@@H](CCCCN)C(N)=O [KLFKKLFK]
MIC (Candida albicans DBFIQ 1): ≥ 122 µM
MIC [6]: 7.6 µM (≈ 7.98 µg/mL)
MIC [11]: 7.6 µM (≈ 7.98 µg/mL)
MIC [12]: 15.2 µM (≈ 16 µg/mL)
MIC [13]: 30.5 µM (≈ 32 µg/mL)
MIC [14]: ≥ 122 µM
MIC (Candida albicans PEEC 2): ≥ 122 µM
MIC [15]: 60.9 µM (≈ 64 µg/mL)

SMILES: CC[C@H](C)[C@H](NC(=O)[C@H](Cc1ccccc1)NC(=O)[C@H](CO)NC(=O)[C@H](CCCCN)NC(=O)[C@H](Cc1c[nH]c2ccccc12)NC(=O)[C@@H](N)CCCCN)C(=O)N[C@@H](CCCCN)C(=O)N[C@@H](CCCCN)C(=O)N[C@@H](CC(C)C)C(=O)N[C@H](C(=O)N[C@@H](CCCCN)C(=O)N[C@@H](C)C(=O)N[C@@H](C)C(=O)N[C@@H](CCCCN)C(=O)N[C@@H](CCCCN)C(=O)N[C@H](C(=O)N[C@H](C(=O)N[C@H](C(=O)N[C@H](C(=O)N[C@@H](C)C(=O)N[C@@H](CCCCN)C(=O)N[C@@H](CCCCN)C(=O)N1CCC[C@H]1C(=O)N[C@@H](CC(C)C)C(=O)N[C@H](C(=O)N[C@H](C(N)=O)C(C)C)[C@@H](C)CC)[C@@H](C)O)[C@@H](C)O)C(C)C)C(C)C)[C@@H](C)O [KWKSFIKKLTKAAKKVVTTAKKPLIV]
MIC (Staphylococcus aureus): > 43.3 µM
MIC (Pseudomonas fluorescens): 0.677 µM (≈ 2 µg/mL)
MIC (Ralstonia pickettii): 0.677 µM (≈ 2 µg/mL)
MIC (Candida albicans): > 43.3 µM
MIC [16]: 1.35 µM (≈ 4 µg/mL)
MIC (Escherichia coli UB1005): 0.677 µM (≈ 2 µg/mL)
MIC [17]: 1.35 µM (≈ 4 µg/mL)
MIC [18]: 1.35 µM (≈ 4 µg/mL)
MIC [19]: 0.677 µM (≈ 2 µg/mL)
MIC [8]: 1.35 µM (≈ 4 µg/mL)
MIC [20]: 0.677 µM (≈ 2 µg/mL)
MIC [21]: 0.338 µM (≈ 1 µg/mL)
MIC [22]: 1.35 µM (≈ 4 µg/mL)
MIC [23]: 10.8 µM (≈ 32 µg/mL)

SMILES: CC[C@H](C)[C@H](NC(=O)[C@H](CCC(N)=O)NC(=O)[C@@H](N)CCCN=C(N)N)C(=O)N[C@@H](Cc1c[nH]c2ccccc12)C(=O)N[C@@H](CCCN=C(N)N)C(=O)N[C@@H](Cc1c[nH]c2ccccc12)C(=O)N[C@@H](Cc1c[nH]c2ccccc12)C(=O)N[C@@H](CCC(N)=O)C(=O)N[C@@H](Cc1c[nH]c2ccccc12)C(N)=O [RQIWRWWQW]
MIC (Escherichia coli): > 50 µM
MIC [29]: > 50 µM
MIC [30]: ≥ 50 µM
MIC (Salmonella sp.): ≥ 50 µM
MIC [31]: > 50 µM
MIC [32]: > 50 µM
MIC (Yersinia enterocolitica): ≥ 50 µM
MIC [15]: > 50 µM

— DBAASP
